Measurements: article PMC10328743, “5-Nitro-3-(2-(4-phenylthiazol-2-yl)hydrazineylidene)indolin-2-one derivatives inhibit HIV-1 replication by a multitarget mechanism of action” (Frontiers in Cellular and Infection Microbiology, 2023)

Assays:
[1] = Viability of infected MT4 cells (cytotoxicity); type: cell-based; details: human, MT4 cells infected with HIV-1; infected MT4 cells viability; three independent experiments, average ± standard deviation
Description: (§1) HIV-1 replication was carried out in MT4 cells as previously reported ([Corona et al., 2016a]) using a molecular clone derived from the pNL4-3 ([Thierry et al., 2015]). A total of 120 ng of p24^gag antigen per 10^6 cells, corresponding to a multiplicity of infection (m.o.i.) of 0.3, was used for infection. […] Flow cytometry analysis was performed on a FACSCalibur flow cytometer (BD Biosciences, San Jose, CA, USA), and the results were analyzed using the […] software.

[2] = tested on: MT4 cells; assay: Viability of infected MT4 cells (cytotoxicity); type: cell-based; details: no toxicity up to the highest concentration tested
Description: as §1

[3] = molecular target: T1, HIV-1 IN (LEDGF-independent) (Human immunodeficiency virus type 1 group M subtype B, UniProt P12497); assay: biochemical; details: strand-transfer activity with omission of LEDGF/p75; read-out: IC50 IN LEDGF-independent integration
T1 construct: Preparation of recombinant full-length IN and LEDGF proteins; made in house; host or cells: E. coli BL21(DE3)
Description: Proteins were expressed in E. coli BL21(DE3). Briefly, His-IN was purified by loading the precipitate of cell lysate onto a Ni-Sepharose column and eluting with a […] imidazole gradient (0–500 mM) in a HEPES buffer (50 mM, pH 7.5) containing NaCl (1 M), CHAPS (7.5 mM), and β-mercaptoethanol (2 mM). FLAG-IN was purified by loading the precipitate of cell lysate onto a phenyl-sepharose and ammonium sulfate gradient (0–800 mM) in a HEPES (pH 7.5, 50 mM) buffer containing NaCl (200 mM), CHAPS (7.5 mM), and β-mercaptoethanol (2 mM). Peak fractions were pooled, loaded onto a heparin column, and eluted with an increasing NaCl gradient (200 mM to 1 M) in a HEPES (pH 7.5, 50 mM) buffer containing CHAPS (7.5 mm) and β-mercaptoethanol (2 mM). Fractions containing integrase were pooled and stored in glycerol (10%) at −80°C.
Briefly, IN (50 nM) was preincubated with increasing concentrations of compounds for 1 h at room temperature in a reaction buffer containing HEPES (20 mM, pH 7.5), DTT (1 mM), glycerol (1%), MgCl2 (20 mM), Brij-35 (0.05%), and bovine serum albumin (BSA) (0.1 mg/ml).

[4] = molecular target: T2, HIV-1 RT-associated RDDP (Human immunodeficiency virus type 1 group M subtype B, UniProt P04585); assay: HIV-1 RNA-dependent DNA polymerase activity determination; type: biochemical; details: wt HIV-1 RT; three independent experiments, average ± standard deviation; read-out: RDDP IC50
T2 construct: The 1:1 ratio between the p66/p51 subunits was also verified; His tag (implied only by Ni-NTA IMAC purification); made in house; host or cells: Escherichia coli M15
Description: (§2) Escherichia coli strain M15 containing the p6HRT-prot vector (provided by Stuart Le Grice laboratory (NCI Frederick)) was grown to an optical density at 600 nm of 0.7 and induced with 1.7 mM of isopropyl β-D-1-thiogalactopyranoside (IPTG) for 4 h. Protein purification was carried out with a BioLogic LP system (Bio-Rad, Hercules, CA, USA) using a combination of immobilized metal affinity chromatography (IMAC) and ion exchange chromatography. Cell pellets were resuspended in lysis buffer (50 mM of sodium phosphate buffer, pH 7.8, containing 0.5 mg/mL of lysozyme), incubated on ice for 20 min, and, after the addition of NaCl to a final concentration of 0.3 M, were sonicated and centrifuged at 30,000 ×g for 1 h. The supernatant was loaded onto a Ni^2+-NTA-Sepharose column pre-equilibrated with loading buffer (50 mM of sodium phosphate buffer, pH 7.8, containing 0.3 M of NaCl, 10% glycerol, and 10 mM of imidazole) and washed thoroughly with wash buffer (50 mM of sodium phosphate buffer, pH 6.0, containing 0.3 M of NaCl, 10% glycerol, and 80 mM of imidazole). RT was eluted with an imidazole gradient in the wash buffer (0–0.5 M). Fractions were collected, and protein purity was checked by sodium dodecyl sulfate–polyacrylamide gel electrophoresis (SDS-PAGE) and found to be higher than 90%. The 1:1 ratio between the p66/p51 subunits was also verified. Enzyme-containing fractions were pooled and diluted 1:1 with 50 mM of sodium phosphate buffer, pH 7.0, containing 10% glycerol, and then loaded into a Hi-trap heparin HP GE (Healthcare LifeScience) pre-equilibrated with 10 column volumes of loading buffer (50 mM of sodium phosphate buffer, pH 7.0, containing 10% glycerol, and 150 mM of NaCl). The column was then washed with loading buffer, and the RT was eluted with Elute Buffer 2 (50 mM of sodium phosphate, pH 7.0, 10% glycerol, 1 M of NaCl). Fractions were collected, and the protein was dialyzed and stored in a buffer containing 50 mM of Tris-HCl, pH 7.0, 25 mM of NaCl, 1 mM of EDTA, and 50% glycerol. Catalytic activities and protein concentrations were determined. Enzyme-containing fractions were pooled, and aliquots were stored at −80°C.
RDDP activity was measured as previously reported in 25-µl volume containing 60 mM of Tris‐HCl buffer, pH 8.1, 8 mM of MgCl2, 60 mM of KCl, 13 mM of DTT, 2.5 µM of poly(A)-oligo(dT), 100 µM of dTTP, increasing concentrations of inhibitors, whose dilution were made in water, and different amounts of enzymes according to a linear range of the dose–response curve. The reaction mixture was incubated for 30 min at 37°C and then stopped by the addition of EDTA. Reaction products were detected by pico green addition and measured with a multilabel counter plate reader Victor 3, equipped with filters for 502/523 nm.

[5] = molecular target: T3, HIV-1 RT-associated RNase H (Human immunodeficiency virus type 1 group M subtype B, UniProt P04585); assay: HIV-1 DNA polymerase-independent RNase H activity determination; type: biochemical; details: wt HIV-1 RT; three independent experiments, average ± standard deviation; read-out: RNase H IC50
T3 construct: The 1:1 ratio between the p66/p51 subunits was also verified; His tag (implied only by Ni-NTA IMAC purification); made in house; host or cells: Escherichia coli M15
Description: as §2
HIV RT-associated RNase H activity was measured as described ([Corona et al., 2016b]) in a 100-µl reaction volume containing 50 mM of Tris-HCl buffer, pH 7.8, 6 mM of MgCl2, 1 mM of dithiothreitol (DTT), 80 mM of KCl, 0.25 µM of hybrid RNA/DNA 5′-[…]-Fluorescin-3′ (high-performance liquid chromatography (HPLC), dry, QC: Mass Check) (available from Metabion) 5′-Dabcyl-[…]-3′ (HPLC, dry, QC: Mass Check), increasing concentrations of inhibitors, whose dilution were made in water, and different amounts of enzymes according to a linear range of the dose–response curve. The reaction mixture was incubated for 1 h at 37°C and stopped by the addition of EDTA, and products were measured with a multilabel counter plate reader Victor 3 equipped with filters for 490/528 nm.

| SMILES | CC50 [1] | toxicity against MT4 cells [2] | IC50 [3] | IC50 [4] | IC50 [5] |
| --- | --- | --- | --- | --- | --- |
| O=C1Nc2ccc(Cl)cc2/C1=N/Nc1nc(-c2ccc(Cl)c(Cl)c2)cs1 [9b] | > 100 µM | > 100 µM | > 100 µM | 24 ± 3 µM | 8.8 ± 1.3 µM |
| Cc1ccc(-c2csc(N/N=C3\C(=O)Nc4ccc([N+](=O)[O-])cc43)n2)cc1 [10a] | > 100 µM | > 100 µM | 35.5 ± 1.5 µM | 18 ± 1.5 µM | 8.5 ± 0.5 µM |
